According to patent EP4745137A1 (Gluetacs Therapeutics (Shanghai) Co., Ltd., priority 2023, dated 2025):

How the values were obtained:
WEE1 = target: T1, WEE1 (Homo sapiens, UniProt P30291+Q96SW2); assay: Western-blot assay of substrate protein degradation in hPBMCs, WEE1; format: cell-based; conditions: 24 hours of compound treatment, compounds tested at 50 nM and 500 nM (concentration of the table not stated)
T1 construct: endogenous in cells; host or cells: hPBMCs (Milecell Biotechnologies)

IKZF1 = target: T2, IKZF1 (Homo sapiens, UniProt Q13422+Q96SW2); assay: Western-blot assay of substrate protein degradation in hPBMCs, IKZF1; format: cell-based; conditions: 24 hours of compound treatment, compounds tested at 50 nM and 500 nM (concentration of the table not stated)
T2 construct: endogenous in cells; host or cells: hPBMCs (Milecell Biotechnologies)

IKZF2 = target: T3, IKZF2 (Homo sapiens, UniProt Q96SW2+Q9UKS7); assay: Western-blot assay of substrate protein degradation in hPBMCs, IKZF2; format: cell-based; conditions: 24 hours of compound treatment, compounds tested at 50 nM and 500 nM (concentration of the table not stated)
T3 construct: endogenous in cells; host or cells: hPBMCs (Milecell Biotechnologies)

IKZF3 = target: T4, IKZF3 (Homo sapiens, UniProt Q96SW2+Q9UKT9); assay: Western-blot assay of substrate protein degradation in hPBMCs, IKZF3; format: cell-based; conditions: 24 hours of compound treatment, compounds tested at 50 nM and 500 nM (concentration of the table not stated)
T4 construct: endogenous in cells; host or cells: hPBMCs (Milecell Biotechnologies)

CK1α = target: T5, CK1α (Homo sapiens, UniProt P48729+Q96SW2); assay: Western-blot assay of substrate protein degradation in hPBMCs, CK1α; format: cell-based; conditions: 24 hours of compound treatment, compounds tested at 50 nM and 500 nM (concentration of the table not stated)
T5 construct: endogenous in cells; host or cells: hPBMCs (Milecell Biotechnologies)

GSPT1 = target: T6, GSPT1 (Homo sapiens, UniProt P15170+Q96SW2); assay: Western-blot assay of substrate protein degradation in hPBMCs, GSPT1; format: cell-based; conditions: 24 hours of compound treatment, compounds tested at 50 nM and 500 nM (concentration of the table not stated)
T6 construct: endogenous in cells; host or cells: hPBMCs (Milecell Biotechnologies)

[1] = target: T7, human Cereblon WT GST-tagged protein (Homo sapiens, UniProt Q96SW2); assay: CRBN-binding affinity by HTRF (CEREBLON BINDING kit); conditions: HTRF inhibitory activity, CEREBLON BINDING kit; read-out: HTRF IC50
T7 construct: purchased CISBIO 64BDCRBNPEH
T7 sequence (Q96SW2 whole entry): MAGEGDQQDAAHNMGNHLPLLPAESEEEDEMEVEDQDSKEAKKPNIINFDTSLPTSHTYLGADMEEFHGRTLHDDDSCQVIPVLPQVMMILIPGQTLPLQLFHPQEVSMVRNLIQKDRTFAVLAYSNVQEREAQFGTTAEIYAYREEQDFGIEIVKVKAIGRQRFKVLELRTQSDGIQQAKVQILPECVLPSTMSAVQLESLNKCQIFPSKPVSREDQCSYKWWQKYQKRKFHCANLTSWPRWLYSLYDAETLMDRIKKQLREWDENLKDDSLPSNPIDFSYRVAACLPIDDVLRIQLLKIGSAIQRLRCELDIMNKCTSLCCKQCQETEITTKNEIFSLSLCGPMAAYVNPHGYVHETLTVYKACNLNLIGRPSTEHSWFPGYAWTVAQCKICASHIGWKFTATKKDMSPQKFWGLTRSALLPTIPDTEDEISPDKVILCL

T5 sequence (P48729 whole entry): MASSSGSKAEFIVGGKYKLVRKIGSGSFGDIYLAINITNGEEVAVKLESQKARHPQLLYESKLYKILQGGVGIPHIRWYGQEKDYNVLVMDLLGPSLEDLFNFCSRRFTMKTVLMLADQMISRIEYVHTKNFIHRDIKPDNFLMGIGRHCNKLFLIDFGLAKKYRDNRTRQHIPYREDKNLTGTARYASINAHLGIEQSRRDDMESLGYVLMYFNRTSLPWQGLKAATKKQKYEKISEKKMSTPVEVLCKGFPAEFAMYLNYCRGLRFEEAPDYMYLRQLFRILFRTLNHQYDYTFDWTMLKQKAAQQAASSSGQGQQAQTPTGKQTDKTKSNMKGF
T5 sequence (Q96SW2 whole entry): as the sequence (Q96SW2 whole entry) above
T5 sequence (Q16531 whole entry partner): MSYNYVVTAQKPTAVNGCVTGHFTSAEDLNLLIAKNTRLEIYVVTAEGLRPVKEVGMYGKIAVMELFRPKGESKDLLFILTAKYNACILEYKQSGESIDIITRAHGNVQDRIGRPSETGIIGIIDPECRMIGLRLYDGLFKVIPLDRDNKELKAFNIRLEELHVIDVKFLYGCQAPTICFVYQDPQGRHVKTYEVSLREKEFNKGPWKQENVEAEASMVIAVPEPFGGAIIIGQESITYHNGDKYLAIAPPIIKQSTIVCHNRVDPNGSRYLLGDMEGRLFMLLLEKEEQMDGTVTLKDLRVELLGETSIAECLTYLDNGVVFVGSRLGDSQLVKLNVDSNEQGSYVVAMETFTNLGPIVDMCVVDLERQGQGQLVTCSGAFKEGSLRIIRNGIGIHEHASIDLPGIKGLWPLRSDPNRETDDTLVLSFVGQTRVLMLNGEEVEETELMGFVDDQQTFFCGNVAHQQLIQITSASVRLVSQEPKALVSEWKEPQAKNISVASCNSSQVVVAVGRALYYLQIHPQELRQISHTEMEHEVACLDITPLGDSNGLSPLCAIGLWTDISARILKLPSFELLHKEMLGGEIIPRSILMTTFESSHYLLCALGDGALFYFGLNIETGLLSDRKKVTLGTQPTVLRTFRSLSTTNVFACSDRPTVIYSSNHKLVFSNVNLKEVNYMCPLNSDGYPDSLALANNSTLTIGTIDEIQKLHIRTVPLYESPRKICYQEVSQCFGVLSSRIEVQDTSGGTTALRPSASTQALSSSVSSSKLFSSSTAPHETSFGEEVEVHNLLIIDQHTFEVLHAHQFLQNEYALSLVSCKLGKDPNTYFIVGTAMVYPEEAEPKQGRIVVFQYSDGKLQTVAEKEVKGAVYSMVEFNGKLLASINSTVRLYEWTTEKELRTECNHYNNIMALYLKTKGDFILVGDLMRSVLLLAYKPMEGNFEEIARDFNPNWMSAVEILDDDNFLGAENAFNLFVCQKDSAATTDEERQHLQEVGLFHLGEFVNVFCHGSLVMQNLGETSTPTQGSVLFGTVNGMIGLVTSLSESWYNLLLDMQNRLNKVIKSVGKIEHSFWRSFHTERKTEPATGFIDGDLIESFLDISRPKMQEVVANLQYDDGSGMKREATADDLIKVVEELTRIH
T6 sequence (P15170 whole entry): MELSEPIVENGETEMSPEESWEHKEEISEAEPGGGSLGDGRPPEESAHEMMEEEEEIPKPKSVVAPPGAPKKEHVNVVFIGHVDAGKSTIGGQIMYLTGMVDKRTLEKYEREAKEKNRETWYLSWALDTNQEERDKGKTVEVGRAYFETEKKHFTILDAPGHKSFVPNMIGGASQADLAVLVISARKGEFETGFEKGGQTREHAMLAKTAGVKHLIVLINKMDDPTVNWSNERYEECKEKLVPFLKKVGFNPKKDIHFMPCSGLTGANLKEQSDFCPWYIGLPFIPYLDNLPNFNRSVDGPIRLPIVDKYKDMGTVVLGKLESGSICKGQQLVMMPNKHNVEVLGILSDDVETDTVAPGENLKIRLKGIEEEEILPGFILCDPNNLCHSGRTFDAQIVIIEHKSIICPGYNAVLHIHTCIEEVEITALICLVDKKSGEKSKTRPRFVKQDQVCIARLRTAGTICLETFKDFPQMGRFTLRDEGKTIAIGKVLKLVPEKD
T6 sequence (Q96SW2 whole entry): as the sequence (Q96SW2 whole entry) above
T6 sequence (Q16531 whole entry partner): as the sequence (Q16531 whole entry partner) above
T4 sequence (Q9UKT9 whole entry): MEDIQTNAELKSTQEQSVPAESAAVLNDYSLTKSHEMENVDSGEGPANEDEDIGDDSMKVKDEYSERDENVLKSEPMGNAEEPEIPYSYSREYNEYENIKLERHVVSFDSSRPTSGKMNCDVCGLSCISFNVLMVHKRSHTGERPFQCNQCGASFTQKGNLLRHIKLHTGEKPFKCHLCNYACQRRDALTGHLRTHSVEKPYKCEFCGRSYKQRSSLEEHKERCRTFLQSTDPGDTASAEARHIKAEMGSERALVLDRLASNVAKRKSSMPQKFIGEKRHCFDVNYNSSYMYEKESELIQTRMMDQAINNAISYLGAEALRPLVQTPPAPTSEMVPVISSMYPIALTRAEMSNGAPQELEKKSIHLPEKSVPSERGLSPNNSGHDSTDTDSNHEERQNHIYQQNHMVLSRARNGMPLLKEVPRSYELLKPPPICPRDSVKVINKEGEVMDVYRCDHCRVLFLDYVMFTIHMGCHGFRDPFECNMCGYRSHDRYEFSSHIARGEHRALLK
T4 sequence (Q96SW2 whole entry): as the sequence (Q96SW2 whole entry) above
T4 sequence (Q16531 whole entry partner): as the sequence (Q16531 whole entry partner) above
T2 sequence (Q13422 whole entry): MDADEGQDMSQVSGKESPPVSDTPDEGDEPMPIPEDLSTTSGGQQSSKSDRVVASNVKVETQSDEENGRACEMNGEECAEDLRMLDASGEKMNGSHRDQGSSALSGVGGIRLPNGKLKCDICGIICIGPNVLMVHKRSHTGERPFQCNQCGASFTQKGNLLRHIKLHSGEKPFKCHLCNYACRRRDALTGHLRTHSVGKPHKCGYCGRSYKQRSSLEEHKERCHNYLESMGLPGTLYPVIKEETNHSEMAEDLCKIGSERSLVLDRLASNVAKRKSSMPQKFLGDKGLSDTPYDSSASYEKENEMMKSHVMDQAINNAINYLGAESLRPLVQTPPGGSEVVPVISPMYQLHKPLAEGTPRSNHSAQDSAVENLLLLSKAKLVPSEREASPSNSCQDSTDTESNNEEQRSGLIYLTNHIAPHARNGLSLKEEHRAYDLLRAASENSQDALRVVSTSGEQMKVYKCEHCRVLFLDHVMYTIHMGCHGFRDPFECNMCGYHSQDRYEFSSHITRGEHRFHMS
T2 sequence (Q96SW2 whole entry): as the sequence (Q96SW2 whole entry) above
T2 sequence (Q16531 whole entry partner): as the sequence (Q16531 whole entry partner) above
T3 sequence (Q9UKS7 whole entry): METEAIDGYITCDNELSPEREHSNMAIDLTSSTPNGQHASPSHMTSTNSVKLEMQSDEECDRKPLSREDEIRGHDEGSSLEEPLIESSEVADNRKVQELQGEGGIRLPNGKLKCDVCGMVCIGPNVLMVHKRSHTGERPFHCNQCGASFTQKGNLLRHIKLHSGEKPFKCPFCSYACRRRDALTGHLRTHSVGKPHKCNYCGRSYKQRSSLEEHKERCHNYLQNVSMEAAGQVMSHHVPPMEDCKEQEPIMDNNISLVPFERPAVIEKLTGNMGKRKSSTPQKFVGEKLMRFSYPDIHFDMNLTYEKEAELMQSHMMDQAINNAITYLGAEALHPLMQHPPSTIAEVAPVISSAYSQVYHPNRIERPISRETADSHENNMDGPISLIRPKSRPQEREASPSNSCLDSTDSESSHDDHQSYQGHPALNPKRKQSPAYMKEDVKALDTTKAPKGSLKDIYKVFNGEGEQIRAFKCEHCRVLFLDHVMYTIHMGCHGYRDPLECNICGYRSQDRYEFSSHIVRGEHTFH
T3 sequence (Q96SW2 whole entry): as the sequence (Q96SW2 whole entry) above
T3 sequence (Q16531 whole entry partner): as the sequence (Q16531 whole entry partner) above

Row | IC50 [1] [nM] | SMILES | Weel substrate protein remaining % (WEE1) | IKZF 1 substrate protein remaining % (IKZF1) | IKZF2 substrate protein remaining % (IKZF2) | IKZF3 substrate protein remaining % (IKZF3) | CK1a substrate protein remaining % (CK1α) | GSPT1 substrate protein remaining % (GSPT1)
1 | < 500 | O=C1CCC(N2Cc3cc(CN4CCN(c5nc(N6CCOCC6)c6sccc6n5)CC4)ccc3C2=O)C(=O)N1 (stereo not drawn) [GT-04906, 3-(5-((4-(4-morpholinothieno[3,2-d]pyrimidin-2-yl)piperazin-1-yl)methyl)-1-oxoisoindolin-2-yl)piperidine-2,6-dione] | B (80%< substrate protein remaining %≤ 100%) | A (0% ≤ substrate protein remaining % ≤ 80%) | B (80%< substrate protein remaining %≤ 100%) | B (80%< substrate protein remaining %≤ 100%) | B (80%< substrate protein remaining %≤ 100%) | B (80%< substrate protein remaining %≤ 100%)
2 | < 500 | O=C1CCC(N2Cc3cc(CN4CC=C(c5ncnc6scc(-c7ccccc7)c56)CC4)ccc3C2=O)C(=O)N1 (stereo not drawn) [GT-04908, 3-(1-oxo-5-((4-(5-phenylthieno[2,3-d]pyrimidin-4-yl)-3,6-dihydropyridin-1(2H)-yl)methyl)isoindolin-2-yl)piperidine-2,6-dione] | A (0% ≤ substrate protein remaining % ≤ 80%) | A (0% ≤ substrate protein remaining % ≤ 80%) | A (0% ≤ substrate protein remaining % ≤ 80%) | A (0% ≤ substrate protein remaining % ≤ 80%) | B (80%< substrate protein remaining %≤ 100%) | A (0% ≤ substrate protein remaining % ≤ 80%)
3 | < 500 | O=C1CCC(N2Cc3cc(CN4CCN(c5ccnc(Br)c5F)CC4)ccc3C2=O)C(=O)N1 (stereo not drawn) [GT-04928, 3-(5-((4-(2-bromo-3-fluoropyridin-4-yl)piperazin-1-yl)methyl)-1-oxoisoindolin-2-yl)piperidine-2,6-dione] | B (80%< substrate protein remaining %≤ 100%) | B (80%< substrate protein remaining %≤ 100%) | B (80%< substrate protein remaining %≤ 100%) | B (80%< substrate protein remaining %≤ 100%) | B (80%< substrate protein remaining %≤ 100%) | A (0% ≤ substrate protein remaining % ≤ 80%)
4 | 500 to 1000 | O=C1CCC(N2Cc3cc(CN4CCN(c5ccnc(O)c5F)CC4)ccc3C2=O)C(=O)N1 (stereo not drawn) [GT-04929, 3-(5-((4-(3-fluoro-2-hydroxypyridin-4-yl)piperazin-1-yl)methyl)-1-oxoisoindolin-2-yl)piperidine-2,6-dione] | B (80%< substrate protein remaining %≤ 100%) | A (0% ≤ substrate protein remaining % ≤ 80%) | B (80%< substrate protein remaining %≤ 100%) | B (80%< substrate protein remaining %≤ 100%) | B (80%< substrate protein remaining %≤ 100%) | A (0% ≤ substrate protein remaining % ≤ 80%)
5 | 500 to 1000 | O=C1CCC(N2Cc3cc(CN4CCC(c5ncc6ccsc6n5)CC4)ccc3C2=O)C(=O)N1 (stereo not drawn) [GT-04933, 3-(1-oxo-5-((4-(thieno[2,3-d]pyrimidin-2-yl)piperidin-1-yl)methyl)isoindolin-2-yl)piperidine-2,6-dione] | A (0% ≤ substrate protein remaining % ≤ 80%) | A (0% ≤ substrate protein remaining % ≤ 80%) | A (0% ≤ substrate protein remaining % ≤ 80%) | A (0% ≤ substrate protein remaining % ≤ 80%) | A (0% ≤ substrate protein remaining % ≤ 80%) | A (0% ≤ substrate protein remaining % ≤ 80%)
6 | 1000 to 1500 | CCc1cnc(C2CCN(Cc3ccc4c(c3)CN(C3CCC(=O)NC3=O)C4=O)CC2)nc1 (stereo not drawn) [GT-04936, 3-(5-((4-(5-ethylpyrimidin-2-yl)piperidin-1-yl)methyl)-1-oxoisoindolin-2-yl)piperidine-2,6-dione] | A (0% ≤ substrate protein remaining % ≤ 80%) | A (0% ≤ substrate protein remaining % ≤ 80%) | A (0% ≤ substrate protein remaining % ≤ 80%) | A (0% ≤ substrate protein remaining % ≤ 80%) | A (0% ≤ substrate protein remaining % ≤ 80%) | A (0% ≤ substrate protein remaining % ≤ 80%)
7 | < 500 | Cc1nc(C2CCN(Cc3ccc4c(c3)CN(C3CCC(=O)NC3=O)C4=O)CC2)c2c3c(sc2n1)CCCC3 (stereo not drawn) [GT-04993, 3-(5-((4-(2-methyl-5,6,7,8-tetrahydrobenzo[4,5]thieno[2,3-d]pyrimidin-4-yl)piperidin-1-yl)methyl)-1-oxoisoindolin-2-yl)piperidine-2,6-dione] | A (0% ≤ substrate protein remaining % ≤ 80%) | A (0% ≤ substrate protein remaining % ≤ 80%) | A (0% ≤ substrate protein remaining % ≤ 80%) | A (0% ≤ substrate protein remaining % ≤ 80%) | A (0% ≤ substrate protein remaining % ≤ 80%) | A (0% ≤ substrate protein remaining % ≤ 80%)
8 | < 500 | O=C1CCC(N2Cc3cc(CN4CCC(c5ncnc6sc7c(c56)CCC7)CC4)ccc3C2=O)C(=O)N1 (stereo not drawn) [GT-04994, 3-(5-((4-(6,7-dihydro-5H-cyclopenta[4,5]thieno[2,3-d]pyrimidin-4-yl)piperidin-1-yl)methyl)-1-oxoisoindolin-2-yl)piperidine-2,6-dione] | A (0% ≤ substrate protein remaining % ≤ 80%) | A (0% ≤ substrate protein remaining % ≤ 80%) | A (0% ≤ substrate protein remaining % ≤ 80%) | A (0% ≤ substrate protein remaining % ≤ 80%) | B (80%< substrate protein remaining %≤ 100%) | B (80%< substrate protein remaining %≤ 100%)
9 | < 500 | O=C1CCC(N2Cc3cc(CN4CCC(c5ncnc6scc(-c7ccccc7)c56)CC4)ccc3C2=O)C(=O)N1 (stereo not drawn) [GT-04995, 3-(1-oxo-5-((4-(5-phenylthieno[2,3-d]pyrimidin-4-yl)piperidin-1-yl)methyl)isoindolin-2-yl)piperidine-2,6-dione] | A (0% ≤ substrate protein remaining % ≤ 80%) | A (0% ≤ substrate protein remaining % ≤ 80%) | A (0% ≤ substrate protein remaining % ≤ 80%) | A (0% ≤ substrate protein remaining % ≤ 80%) | B (80%< substrate protein remaining %≤ 100%) | B (80%< substrate protein remaining %≤ 100%)
10 | < 500 | O=C1CCC(N2Cc3cc(CN4CCN(c5ncnc6sc7c(c56)CCC7)CC4)ccc3C2=O)C(=O)N1 (stereo not drawn) [GT-04996, 3-(5-((4-(6,7-dihydro-5H-cyclopenta[4,5]thieno[2,3-d]pyrimidin-4-yl)piperazin-1-yl)methyl)-1-oxoisoindolin-2-yl)piperidine-2,6-dione] | A (0% ≤ substrate protein remaining % ≤ 80%) | A (0% ≤ substrate protein remaining % ≤ 80%) | A (0% ≤ substrate protein remaining % ≤ 80%) | A (0% ≤ substrate protein remaining % ≤ 80%) | A (0% ≤ substrate protein remaining % ≤ 80%) | A (0% ≤ substrate protein remaining % ≤ 80%)
11 | < 500 | Cc1sc2ncnc(C3CCN(Cc4ccc5c(c4)CN(C4CCC(=O)NC4=O)C5=O)CC3)c2c1C (stereo not drawn) [GT-05034, 3-(5-((4-(5,6-dimethylthieno[2,3-d]pyrimidin-4-yl)piperidin-1-yl)methyl)-1-oxoisoindolin-2-yl)piperidine-2,6-dione] | B (80%< substrate protein remaining %≤ 100%) | A (0% ≤ substrate protein remaining % ≤ 80%) | A (0% ≤ substrate protein remaining % ≤ 80%) | A (0% ≤ substrate protein remaining % ≤ 80%) | A (0% ≤ substrate protein remaining % ≤ 80%) | A (0% ≤ substrate protein remaining % ≤ 80%)
12 | < 500 | Cc1nc(C2=CCN(Cc3ccc4c(c3)CN(C3CCC(=O)NC3=O)C4=O)CC2)c2c(-c3ccccc3)csc2n1 (stereo not drawn) [GT-05102, 3-(5-((4-(2-methyl-5-phenylthieno[2,3-d]pyrimidin-4-yl)-3,6-dihydropyridin-1(2H)-yl)methyl)-1-oxoisoindolin-2-yl)piperidine-2,6-dione] | A (0% ≤ substrate protein remaining % ≤ 80%) | A (0% ≤ substrate protein remaining % ≤ 80%) | A (0% ≤ substrate protein remaining % ≤ 80%) | B (80%< substrate protein remaining %≤ 100%) | B (80%< substrate protein remaining %≤ 100%) | A (0% ≤ substrate protein remaining % ≤ 80%)
